The results in this text go back to patent US11091478B2 (Fochon Pharmaceuticals, Ltd., priority 2017, dated 2021).

Where two headings read alike, the source gives them in different places.

The test system of one assay is DOHH2 cells. Briefly: Cell proliferation assay (MTS), DOHH2 cells, 120 h. Type of assay: cell-based. A digest of the protocol: (§1)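 RS4;11 and DOHH2 cells at 5000 cells/well in RPMI-1640 with 10% FBS were treated with compound at 1.5–10000 nM final, nine points, at 37 °C, 5% CO2. Exposure was 72 h for RS4;11 and 120 h for DOHH2. MTS was added for 2 h, absorbance read at 490/650 nm, and IC50 calculated.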

A further assay relates to RS4;11 cells. Briefly: Cell proliferation assay (MTS), RS4;11 cells, 72 h. Type of assay: cell-based. The essentials:
as §1

By IC50 is commonly meant the concentration needed to halve the response being measured. A higher IC50 goes with lower potency. Consider `CC1(C)CCC(CN2CCN(c3ccc(C(=O)NS(=O)(=O)c4cc5c(c([N+](=O)[O-])c4)N[C@@H](CCN4CCOCC4)CS5)c(Oc4cnc5[nH]ccc5c4)c3)CC2)=C(c2ccc(Cl)cc2)C1` [Example 3-20, (S)-2-((1H-pyrrolo[2,3-b]pyridin-5-yl)oxy)-4-(4-((4′-chloro-5,5-dimethyl-3,4,5,6-tetra-hydro-[1,1′-biphenyl]-2-yl)methyl)piperazin-1-yl)-N-((3-(2-morpholinoethyl)-5-nitro-3,4-dihydro-2H-benzo[b][1,4]thiazin-7-yl)sulfonyl)benzamide], for which the IC50 with DOHH2 cells (Homo sapiens, DOHH-2, 120 h) amounted to 9 nM; in the assay with RS4;11 cells (Homo sapiens, RS4-11, 72 h) it was 2 nM.

Turning to `CC1(C)CCC(CN2CCN(c3ccc(C(=O)NS(=O)(=O)c4cc5c(c([N+](=O)[O-])c4)N[C@H](CO)CO5)c(Oc4cnc5[nH]ccc5c4)c3)CC2)=C(c2ccc(Cl)cc2)C1` [Example 2-8, (R)-2-((1H-pyrrolo[2,3-b]pyridin-5-yl)oxy)-4-(4-((4′-chloro-5,5-dimethyl-3,4,5,6-tetra-hydro-[1,1′-biphenyl]-2-yl)methyl)piperazin-1-yl)-N-((3-(hydroxymethyl)-5-nitro-3,4-dihydro-2H-benzo[b][1,4]oxazin-7-yl)sulfonyl)benzamide], the IC50 in the assay with DOHH2 cells (Homo sapiens, DOHH-2, 120 h) worked out at 67 nM; in the assay with RS4;11 cells (Homo sapiens, RS4-11, 72 h) it was 14 nM.

As to `CC1(C)CCC(CN2CCN(c3ccc(C(=O)NS(=O)(=O)c4cc5c(c([N+](=O)[O-])c4)N[C@H](c4ccccn4)CO5)c(Oc4cnc5[nH]ccc5c4)c3)CC2)=C(c2ccc(Cl)cc2)C1` [Example 2-177, (R)-2-((1H-pyrrolo[2,3-b]pyridin-5-yl)oxy)-4-(4-((4′-chloro-5,5-dimethyl-3,4,5,6-tetra-hydro-[1,1′-biphenyl]-2-yl)methyl)piperazin-1-yl)-N-((5-nitro-3-(pyridin-2-yl)-3,4-di-hydro-2H-benzo[b][1,4]oxazin-7-yl)sulfonyl) benzamide], the IC50 in the assay with DOHH2 cells (Homo sapiens, DOHH-2, 120 h) came to 119 nM; in the assay on RS4;11 cells (Homo sapiens, RS4-11, 72 h), 13 nM.

In the case of `CC1(C)CCC(CN2CCN(c3ccc(C(=O)NS(=O)(=O)c4cc5c(c([N+](=O)[O-])c4)N[C@H](CN4CCOCC4)C5)c(Oc4cnc5[nH]ccc5c4)c3)CC2)=C(c2ccc(Cl)cc2)C1` [Example 1-1, (S)-2-((1H-pyrrolo[2,3-b]pyridin-5-yl)oxy)-4-(4-((4′-chloro-5,5-dimethyl-3,4,5,6-tetrahydro-[1,1′-biphenyl]-2-yl)methyl)piperazin-1-yl)-N-((2-(morpholinomethyl)-7-nitroindolin-5-yl)sulfonyl)benzamide], the IC50 in the assay on DOHH2 cells (Homo sapiens, DOHH-2, 120 h) is 80 nM; in the assay on RS4;11 cells (Homo sapiens, RS4-11, 72 h), 48 nM.

On to `CC1(C)CCC(CN2CCN(c3ccc(C(=O)NS(=O)(=O)c4cc5c(c([N+](=O)[O-])c4)N[C@H](CN4CCP(C)(=O)CC4)CO5)c(Oc4cnc5[nH]ccc5c4)c3)CC2)=C(c2ccc(Cl)cc2)C1` [Example 2-154, (R)-2-((1H-pyrrolo[2,3-b]pyridin-5-yl)oxy)-4-(4-((4′-chloro-5,5-dimethyl-3,4,5,6-tetra-hydro-[1,1′-biphenyl]-2-yl)methyl)piperazin-1-yl)-N-((3-((4-methyl-4-oxido-1,4-aza-phosphinan-1-yl)methyl)-5-nitro-3,4-dihydro-2H-benzo[b][1,4]oxazin-7-yl)sulfonyl) benzamide], for which the IC50 came out at 201 nM in the assay on DOHH2 cells (Homo sapiens, DOHH-2, 120 h) and 24 nM in the assay with RS4;11 cells (Homo sapiens, RS4-11, 72 h).

In the case of `CC1(C)CCC(CN2CCN(c3ccc(C(=O)NS(=O)(=O)c4cc5c(c([N+](=O)[O-])c4)N[C@@H](CC4CCC(O)CC4)CO5)c(Oc4cnc5[nH]ccc5c4)c3)CC2)=C(c2ccc(Cl)cc2)C1` (single isomer, unassigned) [Example 2-244B], the results for the IC50 in the assay on DOHH2 cells and in the assay with RS4;11 cells were 1 nM and 3 nM, respectively.

As to `CC[C@@H]1COc2cc(S(=O)(=O)NC(=O)c3ccc(N4CCN(CC5=C(c6ccc(Cl)cc6)CC(C)(C)CC5)CC4)cc3Oc3cnc4[nH]ccc4c3)cc([N+](=O)[O-])c2N1` [Example 2-107], the IC50 with DOHH2 cells (Homo sapiens, DOHH-2, 120 h) came out at 22 nM; in the assay on RS4;11 cells (Homo sapiens, RS4-11, 72 h), 8 nM.

Regarding `CC1(C)CCC(CN2CCN(c3ccc(C(=O)NS(=O)(=O)c4cc5c(c([N+](=O)[O-])c4)N[C@H](CN4CCN(C(=O)C6CC6)CC4)CO5)c(Oc4cnc5[nH]ccc5c4)c3)CC2)=C(c2ccc(Cl)cc2)C1` [Example 2-94, (R)-2-((1H-pyrrolo[2,3-b]pyridin-5-yl)oxy)-4-(4-((4′-chloro-5,5-dimethyl-3,4,5,6-tetra-hydro-[1,1′-biphenyl]-2-yl)methyl)piperazin-1-yl)-N-((3-((4-(cyclopropanecarbonyl)piperazin-1-yl)methyl)-5-nitro-3,4-dihydro-2H-benzo[b][1,4]oxazin-7-yl)sulfonyl)benza-mide], the IC50 in the assay with DOHH2 cells (Homo sapiens, DOHH-2, 120 h) was 1 nM; in the assay with RS4;11 cells (Homo sapiens, RS4-11, 72 h), 20 nM.

Regarding `CC1(C)CCC(CN2CCN(c3ccc(C(=O)NS(=O)(=O)c4cc5c(c([N+](=O)[O-])c4)N[C@H](C4CCN(C(=O)OC(C)(C)C)CC4)CO5)c(Oc4cnc5[nH]ccc5c4)c3)CC2)=C(c2ccc(Cl)cc2)C1` [Example 2-222, tert-btuyl (R)-4-(7-(N-(2-((1H-pyrrolo[2,3-b]pyridin-5-yl)oxy)-4-(4-((4′-chloro-5,5-dimethyl-3,4,5,6-tetrahydro-[1,1′-biphenyl]-2-yl)methyl)piperazin-1-yl)benzoyl)sulfamoyl)-5-nitro-3,4-dihydro-2H-benzo[b][1,4]oxazin-3-yl) piperidine-1-carboxylate], the IC50 with DOHH2 cells (Homo sapiens, DOHH-2, 120 h) stood at 3 nM; in the assay with RS4;11 cells (Homo sapiens, RS4-11, 72 h), 25 nM.

For `C[C@H]1CN(C[C@@H]2COc3cc(S(=O)(=O)NC(=O)c4ccc(N5CCN(CC6=C(c7ccc(Cl)cc7)CC(C)(C)CC6)CC5)cc4Oc4cnc5[nH]ccc5c4)cc([N+](=O)[O-])c3N2)CCO1` [Example 2-79, 2-((1H-pyrrolo[2,3-b]pyridin-5-yl)oxy)-4-(4-((4′-chloro-5,5-dimethyl-3,4,5,6-tetrahydro-[1,1′-biphenyl]-2-yl)methyl)piperazin-1-yl)-N-(((R)-3-(((S)-2-methylmorpholino)methyl)-5-nitro-3,4-dihydro-2H-benzo[b][1,4]oxazin-7-yl)sulfonyl)benzamide], the concentration for half-maximal inhibition (IC50) with DOHH2 cells (Homo sapiens, DOHH-2, 120 h) turned out to be 55 nM; in the assay with RS4;11 cells (Homo sapiens, RS4-11, 72 h) it was 7 nM.

Regarding `CN1CCN(C[C@@H]2CSc3cc(S(=O)(=O)NC(=O)c4ccc(N5CCN(CC6=C(c7ccc(Cl)cc7)CC(C)(C)CC6)CC5)cc4Oc4cnc5[nH]ccc5c4)cc([N+](=O)[O-])c3N2)CC1` [Example 3-1, (R)-2-((1H-pyrrolo[2,3-b]pyridin-5-yl)oxy)-4-(4-((4′-chloro-5,5-dimethyl-3,4,5,6-tetrahydro-[1,1′-biphenyl]-2-yl)methyl)piperazin-1-yl)-N-((3-((4-methylpiperazin-1-yl)methyl)-5-nitro-3,4-dihydro-2H-benzo[b][1,4]thiazin-7-yl)sulfonyl)benzamide], the IC50 with DOHH2 cells (Homo sapiens, DOHH-2, 120 h) came to 3 nM; in the assay with RS4;11 cells (Homo sapiens, RS4-11, 72 h), 1 nM.

For the compound `CC1(C)CCC(CN2CCN(c3ccc(C(=O)NS(=O)(=O)c4cc5c(c([N+](=O)[O-])c4)N[C@H](CNS(=O)(=O)C4CC4)CO5)c(Oc4cnc5[nH]ccc5c4)c3)CC2)=C(c2ccc(Cl)cc2)C1` [Example 2-138, (R)-2-((1H-pyrrolo[2,3-b]pyridin-5-yl)oxy)-4-(4-((4′-chloro-5,5-dimethyl-3,4,5,6-tetra-hydro-[1,1′-biphenyl]-2-yl)methyl)piperazin-1-yl)-N-((3-(cyclopropanesulfonamidometh-yl)-5-nitro-3,4-dihydro-2H-benzo[b][1,4]oxazin-7-yl)sulfonyl)benzamide], the IC50 was found to be 166 nM in the assay on DOHH2 cells (Homo sapiens, DOHH-2, 120 h) and 72 nM in the assay with RS4;11 cells (Homo sapiens, RS4-11, 72 h).
